Experiments:
[1] = test system: phospho-ERK in MDA-MB-231 cells; test: Phospho-ERK Cytoblot Assay with MDA-MB 231 cells; type: cell-based; settings: Homo sapiens, 1 hour compound incubation, phospho-p44/42 MAP kinase (Thr202/Tyr204)
Excerpt: The utility of the compounds of the present invention can also be illustrated, for example, by their activity in the phosph-ERK Assay described below. Growth-factor induction of the RAS/MEK/ERK signaling pathway leads to the induction of phosphorylation of a number of proteins including phospho-ERK (See C. J. Marshall, MAP kinase kinase kinase, MAP kinase kinase and MAP kinase, Current Opinions in Genetic Development, 1994, 4: p. 82-89). The importance of this pathway in cancer biology has been recognized in the art. Activation of the RAS signaling pathway is an important mechanism by which cancer develops (R. Herrera, et al, Unraveling the complexities of the Raf/MAP kinase pathway for pharmacological intervention, Trends Mol. Med., 2002, 8: p. S27-31). Mutational activation of RAS or downstream effectors as well as growth factor induction of this pathway leads to increased tumor cell proliferation and survival (A. A. Adjei, Blocking oncogenic RAS signaling for cancer therapy, J. Natl. Cancer Inst., 2001, 93(14): p. 1062-1074; J Schlessinger, Cell signaling by receptor tyrosine kinases, Cell, 2000, 103: p. 211-225). Phospho-ERK Cytoblot Assay Protocol with MDA-MB 231 Cells MDA-MB-231 cells in log phase were plated at 25,000 cells/well in 96-well opaque plates (Falcon, USA Cat # 353296) in 100 μL RPMI medium containing 10% (w/v) FBS, and incubated overnight at 37° C. in 5% CO2 incubator. The following day, the growth medium was removed from the plate by aspiration and replaced with RPMI medium containing 0.1% BSA and example compounds diluted to generate final concentrations of 0.0, 0.001, 0.003, 0.01, 0.03, 0.1, 0.3, 1 and 3 μM. Cells were incubated with compound for 1 hour at 37° C. in a 5% CO2 incubator. The media was then removed from the plate by aspiration and the cells were washed once with 180 μL/well cold Tris Buffered Saline (TBS). After removal of the wash buffer, the cells were fixed by adding 180 μL of cold 3.7% (v/v) formaldehyde in TBS to each well for 1 hour at 4° C. After removal of the formaldehyde, the cells were treated with the addition of 60 μL of −20° C. methanol to each well for 5 minutes at 4° C. The methanol was removed and the cells were washed with 180 μL/well of 5% (w/v) BSA in TBS. To block non-specific antibody binding sites, each well was treated with 180 μL/well 5% BSA (w/v) in TBS for thirty minutes at room temperature. After removal of the blocking buffer, 50 μL of an anti-phospho-p44/42 MAP kinase (Thr202/Tyr204) rabbit polyclonal antibody (Cell Signaling, USA Cat # 9101) was added to each well at a dilution of 1:1000 in 5% (w/v) BSA in TBS, and the plate was incubated at 4° C. overnight. Plates were then washed three times with 300 μL/well TBS at room temperature. The plates were then incubated with 50 μL of Horseradish peroxidase (HRP)-conjugated goat-anti-rabbit antibody (Amersham, USA Cat. # NA934V) at a dilution of 1:1000 in 5% BSA-TBS at room temperature for 1 hr. After washing the plate three times with 300 μL/well TBS, 60 μL of Enhanced Chemiluminescence (ECL) reagent (Amersham, USA Cat# RPN2209) was added to each well and incubated at room temperature for five minutes. The plate was then read on a Perkin Elmer Victor 5 Multilabel Counter (#1420-0421). […] The utility of the compounds of the present invention can also be illustrated, for example, by their activity in the flk-1 (murine VEGFR2) Assay described below. The VEGF-VEGFR2 signaling pathway has been extensively characterized as an important regulator of angiogenesis and tumor angiogeneisis (See G. Yancopoulos et al, Vascular-specific growth factors and blood vessel formation, Nature, 2000, 407: p. 242-248; D. Shweiki et al, Induction of vascular endothelial growth factor expression by hypoxia and by glucose deficiency in multi cell spheroids: Implications for tumor angiogenesis, Proc. Natl. Acad. Sci, 1995, 92: p. 768-772). Inhibition of tumor cell growth by blocking this pathway has been well documented in the art. […]

[2] = molecular target: T1, Flk-1 (murine VEGFR-2) kinase domain (Mus musculus, UniProt P35918); test: Flk-1 (murine VEGFR-2) Biochemical Assay (TR-FRET); settings: 10 μM ATP, 7 nM Flk-1 (kinase domain)
T1 construct: 7 nM Flk-1 (kinase domain)
T1 sequence (P35918 832-1160 limits assumed): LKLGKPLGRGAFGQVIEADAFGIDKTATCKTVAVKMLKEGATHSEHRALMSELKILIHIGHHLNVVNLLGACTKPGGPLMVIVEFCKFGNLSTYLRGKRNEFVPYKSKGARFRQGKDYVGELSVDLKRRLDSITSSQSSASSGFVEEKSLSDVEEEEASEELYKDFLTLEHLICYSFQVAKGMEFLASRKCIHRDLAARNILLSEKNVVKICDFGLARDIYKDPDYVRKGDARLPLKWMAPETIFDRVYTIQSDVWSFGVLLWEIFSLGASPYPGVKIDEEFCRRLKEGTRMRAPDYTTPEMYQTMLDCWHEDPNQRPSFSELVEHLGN

[3] = test system: P-AKT/PKB in H209 small cell lung carcinoma cells; test: P-AKT/PKB Cytoblot Assay with H209 cells (SCF-stimulated); type: cell-based; settings: Homo sapiens, NCI-H209, 1 hour compound incubation, SCF 25 ng/mL for 5 minutes, p-(S473) AKT
Excerpt: The utility of the compounds of the present invention can be illustrated, for example, by their activity in the P-AKT/PKB Cytoblot Assay described below. The involvement of the P-AKT/PKB[PI3K/AKt] pathway as a target for cancer chemotherapy has been recognized in the art. For example, see F. Chang et al, Involvement of PI3K/Akt pathway in cell cycle progression, apoptosis, and neoplastic transformation: a target for cancer chemotherapy, Leukemia, 2003, 17: p. 590-603; K. A. West et al, Activation of the PI3K/Akt pathway and chemotherapeutic resistance, Drug Resistance Updates, 2002, 5: p. 234-248; and P. Sen et al, Involvement of the Akt/PKB signaling pathway with disease processes, Molecular and Cellular Biochemistry, 2003, 253: p. 241-246.
P-AKT/PKB Cytoblot Assay Protocol with H209 Cells
H209 small cell lung carcinoma cells in log phase were plated at 50,000 cells/well in 96-well poly-lysine coated, clear bottom/black-sided plates (Becton-Dickinson, USA Cat # 354640) in 100 Ill RPMI medium containing 0.1% (w/v) BSA, and incubated overnight at 37° C. in 5% CO2 incubator. The following day, compounds (10 mM stock solutions in DMSO) were added to the plates to generate final concentrations of 0.0, 0.01, 0.03, 0.1, 0.3, 1.0, 3.0 and 10 μM for IC50 determinations and incubated for 1 hour at 37° C. Cells were then left untreated or stimulated with Stem Cell Factor (SCF: Biosource Cat # PHC2116) at a final concentration of 25 ng/mL for 5 minutes at 37° C. in 5% CO2 incubator. The media was then removed using a vacuum manifold and the cells were washed once with Tris Buffered Saline (TBS). Cells were then fixed by adding 200 μl of cold 3.7% (v/v) formaldehyde in TBS to each well for 15 minutes at 4° C. After removal of the formaldehyde, the cells were treated with the addition of 50 μl of methanol (at −20° C.) to each well for 5 minutes. After removal of the methanol, 200 μl of 1% (w/v) BSA in TBS was added to each well to block non-specific antibody binding sites and the plate was incubated at room temperature for 30 minutes.
After removal of the blocking buffer, 50 μl of p-(S473) AKT rabbit polyclonal antibody (Cell Signaling, USA Cat # 9277S) was added at a dilution of 1:250 in 0.1% (w/v) BSA in TBS, and the plate was incubated at room temperature for 1 hour. Plates were then washed 3 times with cold TBS containing 0.05% (v/v) Tween 20 (TBS-T) and 100 μl of Horseradish peroxidase (HRP)-conjugated goat-anti-rabbit antibody (Amersham, USA Cat # NA934V) at a dilution of 1:250 in TBS-T was added and the plate was incubated at room temperature for 1 h. After washing with ice-cold TBS-T four times, 100 μl of Enhanced Chemiluminescence (ECL) reagent (Amersham, USA Cat# RPN2209) was added to each well and mixed on a mini-orbital shaker for 1 min. The plate was then read on a Perkin Elmer Victor 5 Multilabel Counter (#1420-0421).

Row | IC50 [1] [nM] | IC50 [2] [nM] | IC50 [3] [nM] | Compound
1 | < 3000 | < 500 | < 500 | CC(=O)OCC(=O)Nc1cc(CNc2ncsc2C(=O)Nc2ccc3c(c2)OC(F)(F)C(F)(F)O3)ccn1 [Example 14, 2-oxo-2-[(4-{[(5-{[(2,2,3,3-tetrafluoro-2,3-dihydro-1,4-benzodioxin-6-yl)amino]carbonyl}-1,3-thiazol-4-yl)amino]methyl}pyridin-2-yl)amino]ethyl acetate]
2 | < 3000 | < 500 | < 500 | CCNC(=O)Nc1cc(CNc2ncsc2C(=O)Nc2ccc3c(c2)OC(F)(F)O3)ccn1 [Example 17, N-(2,2-difluoro-1,3-benzodioxol-5-yl)-4-{[(2-{[(ethylamino)carbonyl]amino}pyridin-4-yl)methyl]amino}-1,3-thiazole-5-carboxamide]
3 | < 3000 | < 500 | < 500 | CNC(=O)Nc1cc(CNc2ncsc2C(=O)Nc2ccc3c(c2)OC(F)(F)C(F)(F)O3)ccn1 [Example 20, 4-{[(2-{[(methylamino)carbonyl]amino}pyridin-4-yl)methyl]amino}-N-(2,2,3,3-tetrafluoro-2,3-dihydro-1,4-benzodioxin-6-yl)-1,3-thiazole-5-carboxamide]
4 | < 3000 | < 500 | < 500 | CCNC(=O)Nc1cc(CNc2ncsc2C(=O)Nc2ccc3c(c2)OC(F)(F)C(F)(F)O3)ccn1 [Example 21, 4-{[(2-{[(ethylamino)carbonyl]amino}pyridin-4-yl)methyl]amino}-N-(2,2,3,3-tetrafluoro-2,3-dihydro-1,4-benzodioxin-6-yl)-1,3-thiazole-5-carboxamide]

Continued, molecule first:

Row | Compound | IC50 [1] [nM] | IC50 [2] [nM] | IC50 [3] [nM]
5 | CC(=O)OCC(=O)Nc1cc(CNc2ncsc2C(=O)Nc2ccc3c(c2)OC(F)(F)O3)ccn1 [Example 13, 2-[(4-{[(5-{[(2,2-difluoro-1,3-benzodioxol-5-yl)amino]carbonyl}-1,3-thiazol-4-yl)amino]methyl}pyridin-2-yl)amino]-2-oxoethyl acetate] | < 3000 | < 500 | < 500
6 | CNC(=O)Nc1cc(CNc2ncsc2C(=O)Nc2ccc3c(c2)OC(F)(F)O3)ccn1 [Example 18, N-(2,2-difluoro-1,3-benzodioxol-5-yl)-4-{[(2-{[(methylamino)carbonyl]amino}pyridin-4-yl)methyl]amino}-1,3-thiazole-5-carboxamide] | < 3000 | < 500 | < 500
